Measurements published in ChEMBL document CHEMBL5647690, “Inhibition of demethylases by GSK-J1/J4” (Nature, 2014).

Columns and labels:
[1] = target: T1, Lysine-specific demethylase 4C (Homo sapiens, UniProt Q9H3R0); assay: Inhibition of KDM4C (1 to 349 residues)(unknown origin) by Alphalisa assay
T1 sequence (Q9H3R0 whole entry): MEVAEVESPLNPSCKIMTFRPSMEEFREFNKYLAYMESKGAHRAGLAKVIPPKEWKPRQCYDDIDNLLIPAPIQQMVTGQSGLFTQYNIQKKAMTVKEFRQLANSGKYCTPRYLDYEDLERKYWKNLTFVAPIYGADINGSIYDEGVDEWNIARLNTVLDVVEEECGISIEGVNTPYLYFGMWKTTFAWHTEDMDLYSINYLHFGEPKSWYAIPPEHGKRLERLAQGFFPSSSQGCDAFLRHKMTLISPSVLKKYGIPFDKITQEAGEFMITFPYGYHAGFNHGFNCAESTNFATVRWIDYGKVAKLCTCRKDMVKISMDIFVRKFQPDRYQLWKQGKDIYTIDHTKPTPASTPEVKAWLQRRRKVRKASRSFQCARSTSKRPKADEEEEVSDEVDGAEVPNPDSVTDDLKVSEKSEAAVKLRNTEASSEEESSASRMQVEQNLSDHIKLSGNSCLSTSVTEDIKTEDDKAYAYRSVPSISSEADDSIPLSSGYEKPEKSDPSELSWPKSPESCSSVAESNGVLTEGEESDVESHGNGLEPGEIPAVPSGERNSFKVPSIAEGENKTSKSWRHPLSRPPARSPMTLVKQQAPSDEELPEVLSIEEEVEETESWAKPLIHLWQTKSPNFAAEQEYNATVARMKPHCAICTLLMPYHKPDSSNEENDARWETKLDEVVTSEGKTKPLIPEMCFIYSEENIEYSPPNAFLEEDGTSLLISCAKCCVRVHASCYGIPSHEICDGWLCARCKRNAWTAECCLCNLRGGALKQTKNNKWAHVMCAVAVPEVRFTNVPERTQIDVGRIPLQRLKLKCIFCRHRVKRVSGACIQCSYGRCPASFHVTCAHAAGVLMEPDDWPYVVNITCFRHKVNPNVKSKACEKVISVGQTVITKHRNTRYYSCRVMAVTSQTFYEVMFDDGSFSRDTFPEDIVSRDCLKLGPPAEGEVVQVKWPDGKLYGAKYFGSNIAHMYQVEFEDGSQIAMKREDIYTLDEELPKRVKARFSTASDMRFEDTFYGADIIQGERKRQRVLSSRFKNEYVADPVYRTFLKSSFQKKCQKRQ

[2] = target: T2, Lysine-specific demethylase 4A (Homo sapiens, UniProt O75164); assay: Inhibition of KDM4A (1 to 350 residues)(unknown origin) by Alphalisa assay
T2 sequence (O75164 whole entry): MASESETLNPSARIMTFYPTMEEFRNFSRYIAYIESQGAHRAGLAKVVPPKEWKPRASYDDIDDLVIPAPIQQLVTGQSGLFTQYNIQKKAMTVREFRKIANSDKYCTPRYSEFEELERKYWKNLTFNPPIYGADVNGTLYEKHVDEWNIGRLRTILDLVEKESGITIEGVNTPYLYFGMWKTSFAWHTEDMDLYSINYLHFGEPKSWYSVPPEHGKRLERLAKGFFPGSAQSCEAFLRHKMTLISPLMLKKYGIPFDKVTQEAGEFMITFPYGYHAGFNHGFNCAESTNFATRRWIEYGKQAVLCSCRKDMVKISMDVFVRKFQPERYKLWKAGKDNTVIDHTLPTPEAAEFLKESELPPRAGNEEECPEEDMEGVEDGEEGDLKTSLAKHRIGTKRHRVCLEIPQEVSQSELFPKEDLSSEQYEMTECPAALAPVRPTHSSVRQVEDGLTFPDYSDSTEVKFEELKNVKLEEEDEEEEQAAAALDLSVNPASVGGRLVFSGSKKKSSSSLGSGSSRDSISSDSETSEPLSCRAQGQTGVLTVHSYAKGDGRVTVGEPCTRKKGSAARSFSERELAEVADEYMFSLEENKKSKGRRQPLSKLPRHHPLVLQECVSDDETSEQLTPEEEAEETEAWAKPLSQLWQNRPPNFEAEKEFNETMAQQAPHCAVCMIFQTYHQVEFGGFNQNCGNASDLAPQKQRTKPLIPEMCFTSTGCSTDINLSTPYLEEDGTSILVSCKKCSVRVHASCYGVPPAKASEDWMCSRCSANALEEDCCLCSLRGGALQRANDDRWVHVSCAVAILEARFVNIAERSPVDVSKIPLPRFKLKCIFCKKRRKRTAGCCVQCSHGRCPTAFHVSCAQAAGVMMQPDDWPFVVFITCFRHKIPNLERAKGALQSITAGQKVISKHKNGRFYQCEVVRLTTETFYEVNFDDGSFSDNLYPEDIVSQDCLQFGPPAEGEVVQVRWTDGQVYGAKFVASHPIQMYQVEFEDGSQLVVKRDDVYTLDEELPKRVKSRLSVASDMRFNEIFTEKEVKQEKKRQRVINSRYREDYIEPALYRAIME

[3] = target: Lysine-specific demethylase 5C (Homo sapiens, UniProt P41229); assay: Inhibition of KDM5C (2 to 1560 residues)(unknown origin) by Alphalisa assay
Lysine-specific demethylase 5C, sequence (P41229 whole entry, the tested form may be a part): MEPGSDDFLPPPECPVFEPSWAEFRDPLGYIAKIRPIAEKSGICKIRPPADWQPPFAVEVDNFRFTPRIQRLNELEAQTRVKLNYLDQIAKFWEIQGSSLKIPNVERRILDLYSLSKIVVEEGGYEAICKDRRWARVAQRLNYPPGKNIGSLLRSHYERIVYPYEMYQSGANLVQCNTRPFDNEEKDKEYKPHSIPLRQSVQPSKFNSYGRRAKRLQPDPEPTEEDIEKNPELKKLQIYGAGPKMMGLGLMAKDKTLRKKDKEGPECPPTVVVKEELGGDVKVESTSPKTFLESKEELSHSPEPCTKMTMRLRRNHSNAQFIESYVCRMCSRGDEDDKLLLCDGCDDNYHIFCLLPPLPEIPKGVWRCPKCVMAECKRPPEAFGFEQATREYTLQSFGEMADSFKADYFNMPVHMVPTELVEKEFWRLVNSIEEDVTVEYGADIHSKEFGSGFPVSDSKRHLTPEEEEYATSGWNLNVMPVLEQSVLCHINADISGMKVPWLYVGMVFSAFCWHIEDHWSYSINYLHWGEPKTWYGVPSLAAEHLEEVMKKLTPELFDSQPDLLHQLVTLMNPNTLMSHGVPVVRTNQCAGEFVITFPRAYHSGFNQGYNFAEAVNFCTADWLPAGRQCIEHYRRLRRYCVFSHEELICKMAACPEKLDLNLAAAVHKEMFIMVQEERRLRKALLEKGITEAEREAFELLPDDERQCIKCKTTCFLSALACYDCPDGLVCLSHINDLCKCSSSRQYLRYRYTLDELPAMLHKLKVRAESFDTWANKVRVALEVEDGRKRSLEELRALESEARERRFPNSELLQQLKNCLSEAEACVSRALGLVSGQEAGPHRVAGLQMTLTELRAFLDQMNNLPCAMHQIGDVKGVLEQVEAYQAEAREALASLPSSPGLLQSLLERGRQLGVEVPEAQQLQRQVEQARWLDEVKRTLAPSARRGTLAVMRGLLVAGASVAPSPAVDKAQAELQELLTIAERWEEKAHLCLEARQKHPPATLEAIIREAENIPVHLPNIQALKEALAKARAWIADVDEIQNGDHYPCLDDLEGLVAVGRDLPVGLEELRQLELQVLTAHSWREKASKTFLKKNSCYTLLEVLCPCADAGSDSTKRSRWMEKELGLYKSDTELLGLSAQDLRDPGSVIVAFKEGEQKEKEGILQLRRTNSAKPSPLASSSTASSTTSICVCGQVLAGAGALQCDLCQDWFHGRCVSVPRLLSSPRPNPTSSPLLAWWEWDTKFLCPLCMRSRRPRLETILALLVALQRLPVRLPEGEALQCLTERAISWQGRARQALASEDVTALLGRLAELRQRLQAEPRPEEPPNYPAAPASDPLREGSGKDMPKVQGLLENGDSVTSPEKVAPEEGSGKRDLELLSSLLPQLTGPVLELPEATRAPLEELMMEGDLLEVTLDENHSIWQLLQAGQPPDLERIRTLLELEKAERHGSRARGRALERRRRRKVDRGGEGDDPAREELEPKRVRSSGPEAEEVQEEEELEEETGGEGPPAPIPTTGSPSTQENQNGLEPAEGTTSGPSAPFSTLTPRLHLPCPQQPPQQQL

[4] = target: Lysine-specific demethylase 3B (Homo sapiens, UniProt Q7LBC6); assay: Inhibition of KDM3B (842 to 1761 residues)(unknown origin) by Alphalisa assay
Lysine-specific demethylase 3B, sequence (Q7LBC6 whole entry, the tested form may be a part): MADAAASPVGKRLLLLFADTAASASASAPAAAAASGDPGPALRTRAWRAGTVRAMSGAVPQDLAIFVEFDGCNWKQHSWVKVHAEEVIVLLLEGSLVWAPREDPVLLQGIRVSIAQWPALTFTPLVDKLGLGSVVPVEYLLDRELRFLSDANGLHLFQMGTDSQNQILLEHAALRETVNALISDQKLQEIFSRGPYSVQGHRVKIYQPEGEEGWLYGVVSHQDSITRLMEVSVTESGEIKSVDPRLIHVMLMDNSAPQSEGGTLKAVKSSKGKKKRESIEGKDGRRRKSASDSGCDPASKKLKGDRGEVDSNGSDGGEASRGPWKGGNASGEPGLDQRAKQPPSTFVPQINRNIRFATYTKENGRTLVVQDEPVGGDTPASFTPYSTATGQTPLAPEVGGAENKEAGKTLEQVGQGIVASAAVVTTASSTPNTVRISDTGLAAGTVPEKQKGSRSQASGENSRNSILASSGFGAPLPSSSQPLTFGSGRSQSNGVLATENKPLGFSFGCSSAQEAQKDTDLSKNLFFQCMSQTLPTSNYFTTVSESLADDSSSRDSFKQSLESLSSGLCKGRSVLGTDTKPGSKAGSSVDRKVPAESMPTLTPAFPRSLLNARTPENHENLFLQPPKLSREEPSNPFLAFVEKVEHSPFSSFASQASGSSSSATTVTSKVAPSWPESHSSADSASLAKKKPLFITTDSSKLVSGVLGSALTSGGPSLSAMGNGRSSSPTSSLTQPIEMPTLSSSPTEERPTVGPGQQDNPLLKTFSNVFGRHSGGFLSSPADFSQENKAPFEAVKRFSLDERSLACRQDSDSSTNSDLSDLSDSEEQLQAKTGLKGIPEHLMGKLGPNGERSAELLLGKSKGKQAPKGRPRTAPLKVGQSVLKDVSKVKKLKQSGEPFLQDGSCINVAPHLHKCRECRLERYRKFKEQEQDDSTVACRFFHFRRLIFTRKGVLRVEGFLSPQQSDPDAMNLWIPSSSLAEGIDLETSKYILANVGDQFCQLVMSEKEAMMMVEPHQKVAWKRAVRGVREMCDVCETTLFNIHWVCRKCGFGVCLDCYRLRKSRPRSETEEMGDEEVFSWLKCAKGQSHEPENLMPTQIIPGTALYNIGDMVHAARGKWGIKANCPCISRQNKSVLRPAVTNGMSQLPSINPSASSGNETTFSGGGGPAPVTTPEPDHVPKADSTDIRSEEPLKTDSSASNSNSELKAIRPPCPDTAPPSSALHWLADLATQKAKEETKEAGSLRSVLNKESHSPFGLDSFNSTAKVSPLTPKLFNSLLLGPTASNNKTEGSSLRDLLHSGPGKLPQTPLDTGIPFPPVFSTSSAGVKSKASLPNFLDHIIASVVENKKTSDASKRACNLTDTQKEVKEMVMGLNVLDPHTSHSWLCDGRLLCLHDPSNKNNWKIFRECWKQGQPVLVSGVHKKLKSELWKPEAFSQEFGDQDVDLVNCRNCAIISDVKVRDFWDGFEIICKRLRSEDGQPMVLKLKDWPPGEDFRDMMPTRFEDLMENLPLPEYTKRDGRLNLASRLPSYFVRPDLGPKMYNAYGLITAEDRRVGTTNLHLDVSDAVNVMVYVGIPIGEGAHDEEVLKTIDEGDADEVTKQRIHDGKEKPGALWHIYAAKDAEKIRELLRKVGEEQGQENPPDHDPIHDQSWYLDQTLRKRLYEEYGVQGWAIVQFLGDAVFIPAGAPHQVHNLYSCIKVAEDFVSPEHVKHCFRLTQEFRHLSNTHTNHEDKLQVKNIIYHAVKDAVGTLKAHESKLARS

CCOC(=O)CCNc1cc(N2CCc3ccccc3CC2)nc(-c2ccccn2)n1
IC50 [1]: 5.5 µM | IC50 [2]: 7.5 µM | IC50 [3]: 15 µM | IC50 [4]: 6.9 µM

O=C(O)CCNc1cc(N2CCc3ccccc3CC2)nc(-c2ccccn2)n1
IC50 [1]: 34 µM | IC50 [2]: > 50 µM | IC50 [3]: 0.55 µM | IC50 [4]: > 75 µM
